Results reported in patent US7432276B2, “ABCA1 elevating compounds” (CV Therapeutics, Inc., priority 2005, dated 2008).

Test system: ABCA1 mRNA
Test: ABCA1 mRNA induction in THP-1 cells, QuantiGene branched DNA assay
Type: cell-based
Conditions: 10 μM test compound, 18-20 hours; for fold induction at 10 µM: Homo sapiens, read-out: ABCA1 Induction Fold Increase over DMSO Vehicle
Summary of the method: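 THP-1 cells, grown to subconfluence, treated with compounds at 10 and 3 μM in DMEM/BSA for 18–20 h. Lysates hybridized with ABCA1-specific probe 16–18 h at 53 °C; QuantiGene branched DNA luminescence gives fold increase over DMSO.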

Row | Structure (SMILES) | ABCA1 Induction Fold Increase over DMSO Vehicle | fold induction at 10 µM
1 | CC(C)(C)OC(=O)N1CCN(C(=O)c2ccc3c(c2)C(C)(C)[C@H]2COc4cccc(F)c4[C@H]2N3)CC1 [Number 126, ((6aR,12aS)-6a,7,12,12a-tetrahydro-1-fluoro-7,7-dimethyl-6H-chromeno[4,3-b]quinolin-9-yl)(4-tert-butyl-carboxylate-piperazin-1-yl)methanone] | 7.3 FOLD INCREASE | 
2 | CCOc1ccc2c(c1)C(C)(C)C1COc3c(OC)ccc(Br)c3C1N2 (stereo not shown) [Number 78, 1-bromo-9-ethoxy-4-methoxy-7,7-dimethyl-7,12,12a,6a-tetrahydrochromano[4,3-b]quinoline] | 2.7 FOLD INCREASE | 
3 | COc1cccc2c1[C@H]1Nc3ccc(-n4ncc(C(=O)N5CCS(=O)(=O)CC5)c4C)cc3C(C)(C)[C@H]1CO2 [Number 141, 1-((6aR,12aS)-6a,7,12,12a-tetrahydro-1-methoxy-7,7-dimethyl-6H-chromeno[4,3-b]quinolin-9-yl)1-5-methyl-1H-pyrazole-4-((1,1-dione-1,4-thiazaperhydroin-yl)methanone)] | 7.1 FOLD INCREASE | 
4 | COc1cccc2c1OC[C@H]1[C@H]2Nc2ccc(CCC(=O)O)cc2C1(C)C [Number 28, 3-((12aR,6aR)-4-methoxy-7,7-dimethyl-7,12,12a,6a-tetrahydrochromano[4,3-b]quinolin-9-yl)propanoic acid] | 1.9 FOLD INCREASE | 
5 | CCS(=O)(=O)N1CCN(C(=O)c2ccc3c(c2)C(C)(C)[C@H]2COc4c(OC)cccc4[C@H]2N3)CC1 [Number 134, ((6aR,12aS)-4-methoxy-6a,7,12,12a-tetrahydro-7,7-dimethyl-6H-chromeno[4,3-b]quinolin-9-yl)(4-ethanesulfonylpiperazin-1-yl)methanone] |  | 5.8
6 | COc1ccc(Br)c2c1OCC1C2Nc2ccc(C(N)=S)cc2C1(C)C (stereo not shown) [Number 82, amino(1-bromo-4-methoxy-7,7-dimethyl(7,12,12a,6a-tetrahydrochromano[4,3-b]quinolin-9-yl))methane-1-thione] | 2.0 FOLD INCREASE | 
7 | COc1cccc2c1OCC1C2Nc2ccc(Cc3nnn[nH]3)cc2C1(C)C (stereo not shown) [Number 76, 4-methoxy-7,7-dimethyl-9-(1,2,3,4-tetraazol-5-ylmethyl)-7,12,12a,6a-tetrahydrochromano[4,3-b]quinoline] | 6.0 FOLD INCREASE | 
8 | CCS(=O)(=O)N1CCN(C(=O)c2ccc3c(c2)C(C)(C)[C@@H]2COc4c(F)cccc4[C@H]2N3)CC1 [Number 139, ((6aS,12aS)-4-fluoro-6a,7,12,12a-tetrahydro-7,7-dimethyl-6H-chromeno[4,3-b]quinolin-9-yl)(4-ethanesulfonylpiperazin-1-yl)methanone] |  | 2.8
9 | COc1cc(-c2ccccc2)cc2c1OC[C@H]1[C@@H]2Nc2ccc(C(O)(C(F)(F)F)C(F)(F)F)cc2C1(C)C [Number 77, 2-((12aS,6aR)-4-methoxy-7,7-dimethyl-2-phenyl(7,12,12a,6a-tetrahydrochromano[4,3-b]quinolin-9-yl))-1,1,1,3,3,3-hexafluoropropan-2-ol] | 5.3 FOLD INCREASE | 
10 | CCS(=O)(=O)N1CCN(C(=O)c2coc(-c3ccc4c(c3)C(C)(C)[C@H]3COc5cccc(F)c5[C@H]3N4)n2)CC1 [Number 142, 2-((6aR,12aS)-1-fluoro-6a,7,12,12a-tetrahydro-7,7-dimethyl-6H-chromeno[4,3-b]quinolin-9-yl)oxazole-(4-(4-ethanesulfonylpiperazin-1-yl)methanone)] | 5 FOLD INCREASE | 
11 | COC(=O)c1ccc2c(c1)C(C)(C)[C@H]1COc3c(OC)cc(-c4c(C)noc4C)cc3[C@H]1N2 (racemic) [Number 162, (6aR,12aS)-methyl 6a,7,12,12a-tetrahydro-4-methoxy-7,7-dimethyl-2-(3,5-dimethylisoxazol-4-yl)-6H-chromeno[4,3-b]quinoline-9-carboxylate] |  | 7.7
12 | COc1ccc2c(c1)C(C)(C)[C@@H]1COc3cccc(OC)c3[C@H]1N2C [Number 176, (6aS,12aS)-6a,7,12,12a-tetrahydro-1,9-dimethoxy-7,7,12-trimethyl-6H-chromeno[4,3-b]quinoline] |  | 2.9
13 | CC(C)=CCOC(=O)c1ccc2c(c1)C1Nc3ccc(C(O)(C(F)(F)F)C(F)(F)F)cc3C(C)(C)C1CO2 (stereo not shown) [Number 13, 3-methylbut-2-enyl 7,7-dimethyl-9-[2,2,2-trifluoro-1-hydroxy-1-(trifluoromethyl)ethyl]-7,12,12a,6a-tetrahydrochromano[4,3-b]quinoline-2-carboxylate] | 3.4 FOLD INCREASE | 
14 | CC(C)=CCOC(=O)c1ccc2c(c1)C1Nc3ccc(B(O)O)cc3C(C)(C)C1CO2 (stereo not shown) [Number 15, 3-methylbut-2-enyl 9-(dihydroxyboramethyl)-7,7-dimethyl-7,12,12a,6a-tetrahydrochromano[4,3-b]quinoline-2-carboxylate] | 1.8 FOLD INCREASE | 
15 | COc1cccc2c1OCC1C2Nc2ccc(Br)cc2C1(C)C (stereo not shown) [Number 75, 9-bromo-4-methoxy-7,7-dimethyl-7,12,12a,6a-tetrahydrochromano[4,3-b]quinoline] | 7.4 FOLD INCREASE | 
16 | CCOc1cccc2c1OCC1C2Nc2ccc(C(O)(C(F)(F)F)C(F)(F)F)cc2C1(C)C (stereo not shown) [Number 22, 2-(4-ethoxy-7,7-dimethyl(7,12,12a,6a-tetrahydrochromano[4,3-b]quinolin-9-yl))-1,1,1,3,3,3-hexafluoropropan-2-ol] | 4.8 FOLD INCREASE | 
17 | COc1cccc2c1OC[C@@H]1[C@@H]2Nc2ccc(C(=O)O)cc2C1(C)C [Number 49, (12aS,6aS)-4-methoxy-7,7-dimethyl-7,12,12a,6a-tetrahydrochromano[4,3-b]quinoline-9-carboxylic acid] | 1.7 FOLD INCREASE | 
18 | COc1cc(Br)cc2c1OC[C@H]1[C@H]2Nc2ccc(C(O)(C(F)(F)F)C(F)(F)F)cc2C1(C)C [Number 66, 2-((12aR,6aR)-2-bromo-4-methoxy-7,7-dimethyl(7,12,12a,6a-tetrahydrochromano[4,3-b]quinolin-9-yl))-1,1,1,3,3,3-hexafluoropropan-2-ol] | 2.5 FOLD INCREASE | 
19 | COc1ccc(Br)c2c1OCC1C2Nc2ccc(C(C)=O)cc2C1(C)C (stereo not shown) [Number 80, 1-(1-bromo-4-methoxy-7,7-dimethyl-7,12,12a,6a-tetrahydrochromano[4,3-b]quinolin-9-yl)ethan-1-one] | 4.3 FOLD INCREASE | 
20 | CC(=O)c1ccc2c(c1)C(C)(C)C1COc3c(F)cccc3C1N2 (stereo not shown) [Number 101, 1-(4-fluoro-7,7-dimethyl-7,12,12a,6a-tetrahydrochromano[4,3-b]quinolin-9-yl)ethan-1-one] | 4.0 FOLD INCREASE | 
21 | CCOc1cccc2c1OCC1C2Nc2ccc(C(C)=O)cc2C1(C)C (stereo not shown) [Number 42, 1-(4-ethoxy-7,7-dimethyl-7,12,12a,6a-tetrahydrochromano[4,3-b]quinolin-9-yl)ethan-1-one] | 3.8 FOLD INCREASE | 
22 | CN(C)C(=O)CCc1ccc2c(c1)C1Nc3ccc(C(O)(C(F)(F)F)C(F)(F)F)cc3C(C)(C)C1CO2 (stereo not shown) [Number 39, 3-{7,7-dimethyl-9-[2,2,2-trifluoro-1-hydroxy-1-(trifluoromethyl)ethyl](7,12,12a,6a-tetrahydrochromano[4,3-b]quinolin-2-yl)}-N,N-dimethylpropanamide] |  | 3.4
